Assay results taken from patent publication US5128448A, “CCK analogs with appetite regulating activity” (Hoffman-La Roche Inc., priority 1990, dated 1992).
Non-standard residues stand in square brackets, D forms with d. Residues, ends and D or L forms follow the SMILES beside them. sY = N[C@@H](Cc1ccc(OS(=O)(=O)O)cc1)C(=O)O; 2Nal = N[C@@H](Cc1ccc2ccccc2c1)C(=O)O; Cha = N[C@@H](CC1CCCCC1)C(=O)O

Biological target: Human neutral metalloendopeptidase (Homo sapiens, UniProt P08473)
Test: Degradation by human neutral metalloendopeptidase (HPLC)
Type: in vitro ADME
Settings: for % Degradation by Heights: 37° C., tris-HCl pH 7.6; for No. of Peaks: HPLC
Procedure: Human neutral metalloendopeptidase (0.01 mg) and 5 nmol of peptide were incubated in […] tris-HCl buffer (pH 7.6) and at 37° C. for varying periods of time. The degradation of the peptide was monitored by analytical HPLC on a 5 micron Adsorbosphere-ODS column with 0-50% CH3 CN gradient in 0.1N potassium phosphate buffer, pH 3.0, with UV detection at 210 nm. Rates are based on presumed production of Asp-Tyr(SO3 H)-Met-Gly for CCK-8 and Ac-Tyr(SO3 H)-Met-Gly for the compound of example 73.

Sequence of Human neutral metalloendopeptidase (P08473 whole entry): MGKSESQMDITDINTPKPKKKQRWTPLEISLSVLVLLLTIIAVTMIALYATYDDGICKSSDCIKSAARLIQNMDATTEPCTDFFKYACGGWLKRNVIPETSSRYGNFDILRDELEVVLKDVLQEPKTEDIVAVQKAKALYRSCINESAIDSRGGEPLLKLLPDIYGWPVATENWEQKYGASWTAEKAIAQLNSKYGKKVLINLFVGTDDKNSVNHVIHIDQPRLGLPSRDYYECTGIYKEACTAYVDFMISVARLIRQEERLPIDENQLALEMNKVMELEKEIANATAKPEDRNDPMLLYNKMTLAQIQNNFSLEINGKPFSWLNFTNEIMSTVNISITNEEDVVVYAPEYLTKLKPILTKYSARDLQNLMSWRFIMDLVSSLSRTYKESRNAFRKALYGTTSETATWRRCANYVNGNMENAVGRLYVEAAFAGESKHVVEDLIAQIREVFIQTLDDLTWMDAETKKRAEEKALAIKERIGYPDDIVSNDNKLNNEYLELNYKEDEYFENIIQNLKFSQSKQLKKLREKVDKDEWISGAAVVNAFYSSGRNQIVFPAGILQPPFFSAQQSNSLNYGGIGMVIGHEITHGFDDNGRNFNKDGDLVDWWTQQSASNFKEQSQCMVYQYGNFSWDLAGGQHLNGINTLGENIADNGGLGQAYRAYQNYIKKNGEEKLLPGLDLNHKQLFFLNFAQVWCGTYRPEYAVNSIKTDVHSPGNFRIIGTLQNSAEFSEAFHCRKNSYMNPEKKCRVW

% Degradation by Heights (time of incubation 120 min) [%] | % Degradation by Heights (time of incubation 240 min) [%] | No. of Peaks (time of incubation 240 min, one peak detected and one peak that coeluted with substrate) | Compound | % Degradation by Heights (time of incubation 0 min) [%] | % Degradation by Heights (time of incubation 15 min) [%] | % Degradation by Heights (time of incubation 30 min) [%] | % Degradation by Heights (time of incubation 60 min) [%] | No. of Peaks (time of incubation 60 min)
 |  |  | CSCC[C@H](NC(=O)[C@H](Cc1ccc(OS(=O)(=O)O)cc1)NC(=O)[C@@H](N)CC(=O)O)C(=O)NCC(=O)N[C@@H](Cc1c[nH]c2ccccc12)C(=O)N[C@@H](CCSC)C(=O)N[C@@H](CC(=O)O)C(=O)N[C@@H](Cc1ccccc1)C(N)=O [CCK-8, Asp^26 -Tyr-(SO3 H)^27 -Met^28 -Gly^29 -Trp^30 -Met^31 -Asp^32 -Phe^33 -NH2] | 0 | 6.2 | 33.2 | 69.7 | 4
27.0 | 56.4 | 2 | CSCC[C@H](NC(=O)[C@H](Cc1ccc(OS(=O)(=O)O)cc1)NC(C)=O)C(=O)NCC(=O)N[C@@H](Cc1ccc2ccccc2c1)C(=O)N[C@@H](CCSC)C(=O)N[C@@H](CC(=O)O)C(=O)N[C@@H](CC1CCCCC1)C(N)=O [Example 73, Ac-Tyr(SO3 H)-Met-Gly-(2)Nal-Met-Asp-Cyclohexylalanine-NH2] (Ac-[sY]MG[2Nal]MD[Cha]-NH2) | 0 |  |  | 10.0 | 
